Here are results for 8 molecules from patent US20190225650A1, “PEPTIDOMIMETIC MACROCYCLES AND USE THEREOF IN REGULATING HIF1ALPHA” (AILERON THERAPEUTICS, INC., priority 2013, published 2019).

For experiment [1], the system named is HRE-bla ME-180 cells. Briefly: Reporter gene assay (HRE-bla ME-180 HIF reporter, GeneBLAzer). The settings on record: for EC50: 24 hour normoxia. Format: cell-based, human. In outline: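 A FRET β-lactamase readout of HIF transcription was used. After compound treatment in 0.3% DMSO/media under normoxic conditions, 20 μl of 6× LiveBLAzer-FRET B/G (CCF4-AM) substrate was added. Plates sat 3 hr at room temperature in the dark and were read at 409 Ex/460Em and 409Ex/530Em on a Synergy 2. Inhibition was compared against DMSO vehicle controls, with chetomin as positive control.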

Experiment [2] has as its system HRE-bla ME-180 cells. The experiment in a line: Cell proliferation assay (viability, MTT, 1% FBS). The experiment is classed as cell-based, human. The essentials:
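ME-180 cells (2×10^4/well) in Opti-MEM with 1% FBS were pretreated 16 h under normoxia (21% O2), vehicle 0.5% DMSO final. Incubation then continued under normoxia or hypoxia (1% O2); viable cells quantified by MTT-type CellTiter 96 assay.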

Experiment [3] deals with T1, flag-tagged HIF1α (AA 786-826) / His6-tagged p300 (AA 323-423) complex (Homo sapiens, UniProt Q09472).
T1 construct: His6-tagged p300 (AA 323-423); made in house; host or cells: E. coli (pETDuet vector)
Briefly: HIF1α p300 displacement assay (TR FRET, +CHAPS). Format: binding. Conditions: read-out: IC50 (nM) (HIF1α_p300 Displacement + CHAPS). The essentials:
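The co-expressed flag-HIF1α (786-826)/His6-p300 (323-423) complex, purified from E. coli with 0.1 mM ZnSO4, was used at 300 nM final with competitor peptides for 1 h at room temperature. Buffer was 150 mM NaCl, 20 mM HEPES pH 7.4, 7.5 mM CHAPS and 1 mM DTT. Anti-Flag-K (0.5 μM) and anti-His-D2 (4 nM) were then added for 2 h, and IC50s were fitted from the TR-FRET ratio.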

Experiment [4] has as its target T2, His6-tagged p300 (AA 323-423) (UniProt Q09472 323-423).
T2 construct: range 323-423; also called p300-CH; not shown: His6 tag
Briefly: TR-FRET HIF1a/p300 displacement; grade = IC50 >700 nM. As to the method: The ability of peptides to displace HIF1α c-terminal trans-activation domain from p300-CH was measured by a TR FRET assay. […] The complex was diluted to 300 nM final in complete assay media and competitor peptides were added. The complete assay media contained 150 mM NaCl (Sigma +S5150 or equivalent), 20 mM HEPES pH 7.4 (Boston Bioproducts, Ashland, Mass.; #BB-2076), 7.5 mM CHAPS (Thermo #28300 or equivalent), and 1 mM DTT. Protein and peptide were incubated at room temperature for 1 hour before the addition of anti-Flag-K and anti-6×HIS-D2 (CisBio, Bedford Mass.) HTRF reconstitution buffer (50 mM Phosphate pH 7, 0.8 Potassium Flouride, BSA 0.2%)¹ to a final concentration of 0.5 μM and 4 nM respectively. The reaction continued for an additional two hours at room temperature. The reaction was read on a TECAN F500 plate reader with settings recommended by CisBio. The ratio of donor to acceptor fluorescence was calculated. The resulting data was analyzed with Graphpad Prism 5.0. IC50 values were calculated for both proteins using the One Site Fit-LogIC50 equation and presented in the column “IC₅₀ (nM) (HIF1α_p300 Displacement+CHAPS)” of Table 6. ¹ Cisbio USA, Bedford, Mass.; 61HISDLB (lot 007A), 61FG2KLB (024A), HTRF Buffer (62RB3RDF)

Bridge positions count the residues as written; N and C are the ends. Square brackets hold non-standard residues; d marks the D form. Peptide text beside a SMILES is read from it. R8 = C=CCCCCCC[C@@](C)(N)C(=O)O; S5 = C=CCCC[C@](C)(N)C(=O)O; Nle = CCCC[C@H](N)C(=O)O

T2 sequence (Q09472 323-423 limits assumed): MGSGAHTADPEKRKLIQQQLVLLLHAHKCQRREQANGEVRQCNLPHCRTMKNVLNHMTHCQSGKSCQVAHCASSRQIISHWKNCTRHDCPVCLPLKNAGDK
T1 sequence (Q09472 323-423, one chain of several): as the sequence (Q09472 323-423 limits assumed) above

For the molecule `CCCC[C@H](NC(=O)[C@]1(C)CCCC=CCCC[C@](C)(NC(=O)[C@H](CCCC)NC(=O)[C@H](CC(C)C)NC(=O)[C@@H](NC(=O)[C@H](CCC(=O)O)NC(=O)[C@H](CCC(=O)O)NC(=O)[C@H](CC(=O)O)NC(=O)[C@@H](NC(=O)[C@H](CC(N)=O)NC(=O)[C@@H](NC(=O)[C@H](CCC(N)=O)NC(=O)[C@H](CC(=O)O)NC(=O)[C@H](CC(C)C)NC(=O)[C@H](C)NC(=O)[C@H](CCCNC(=N)N)NC(=O)[C@H](CC(C)C)NC(=O)[C@H](CC(C)C)NC(=O)[C@H](CCC(=O)O)NC(=O)[C@H](CCC(=O)O)NC(=O)CNC(=O)[C@H](CCC(N)=O)NC(=O)[C@H](CC(C)C)NC(=O)[C@H](CC(C)C)NC(C)=O)C(C)C)[C@@H](C)CC)C(C)C)C(=O)N[C@@H](CC(C)C)C(=O)N[C@@H](C(C)C)C(=O)N[C@@H]([C@@H](C)CC)C(=O)N1)C(N)=O` [SP-335] (Ac-LLQGEELLRALDQVNIDEEVL[Nle][S5]LVI[S5][Nle]-NH2; staple 23-27), in the experiment on HRE-bla ME-180 cells [1], the “18 h Avg % max inhibition at top conc (HIF Rptr-24 hrs normoxia) (μM)” value was “+ (<10: +)” and the EC50 is over 30 µM. Moreover, the “Viability 1% FBS AVG (MTT V3-24 hr Normoxia) (μM)” value with HRE-bla ME-180 cells [2] is given as “++++ (≥30: ++++)”. In experiment [3], the IC50 lay in the range of 400 to 700 nM.
The like results for `CCCC[C@H](NC(=O)[C@H](CCC(=O)O)NC(=O)[C@]1(C)CCCC=CCCCCCC[C@@](C)(NC(=O)[C@H](CCC(=O)O)NC(=O)[C@H](CC(=O)O)NC(=O)[C@@H](NC(=O)[C@H](CC(N)=O)NC(=O)[C@@H](NC(=O)[C@H](CCC(N)=O)NC(=O)[C@H](CC(=O)O)NC(=O)[C@H](CC(C)C)NC(=O)[C@H](C)NC(=O)[C@]2(C)CCCC=CCCC[C@](C)(NC(=O)CNC(=O)[C@H](CCC(N)=O)NC(=O)[C@H](CC(C)C)NC(=O)[C@H](CC(C)C)NC(C)=O)C(=O)N[C@@H](CCC(=O)O)C(=O)N[C@@H](CC(C)C)C(=O)N[C@@H](CC(C)C)C(=O)N2)C(C)C)[C@@H](C)CC)C(=O)N[C@@H](C(C)C)C(=O)N[C@@H](CC(C)C)C(=O)N[C@@H](CCCC)C(=O)N[C@@H](CO)C(=O)N[C@@H](CC(C)C)C(=O)N[C@@H](C(C)C)C(=O)N1)C(=O)NCC(N)=O` [SP-343] (Ac-LLQG[S5]ELL[S5]ALDQVNIDE[R8]VL[Nle]SLV[S5]E[Nle]G-NH2; staple 5-9, 19-26) were, in that order, “+ (<10: +)”, over 30 µM, “++++ (≥30: ++++)” and 200 to 400 nM.

B1: SP-9 (peptide)
peptide: Ac-AIDEEVL[Nle][S5]LVI[S5][Nle]ALDRI-NH2
modifications: staple 9-13
SMILES: CCCC[C@H](NC(=O)[C@H](CC(C)C)NC(=O)[C@@H](NC(=O)[C@H](CCC(=O)O)NC(=O)[C@H](CCC(=O)O)NC(=O)[C@H](CC(=O)O)NC(=O)[C@@H](NC(=O)[C@H](C)NC(C)=O)[C@@H](C)CC)C(C)C)C(=O)N[C@@]1(C)CCCC=CCCC[C@@](C)(C(=O)N[C@@H](CCCC)C(=O)N[C@@H](C)C(=O)N[C@@H](CC(C)C)C(=O)N[C@@H](CC(=O)O)C(=O)N[C@@H](CCCNC(=N)N)C(=O)N[C@H](C(N)=O)[C@@H](C)CC)NC(=O)[C@H]([C@@H](C)CC)NC(=O)[C@H](C(C)C)NC(=O)[C@H](CC(C)C)NC1=O
B1: in experiment [4], the IC50 is over 700 nM.

B2: SP-15 (peptide)
peptide: Ac-FIDEEVA[Nle][S5]LVI[S5][Nle]ALDRI-NH2
modifications: staple 9-13
SMILES: CCCC[C@H](NC(=O)[C@H](C)NC(=O)[C@@H](NC(=O)[C@H](CCC(=O)O)NC(=O)[C@H](CCC(=O)O)NC(=O)[C@H](CC(=O)O)NC(=O)[C@@H](NC(=O)[C@H](Cc1ccccc1)NC(C)=O)[C@@H](C)CC)C(C)C)C(=O)N[C@@]1(C)CCCC=CCCC[C@@](C)(C(=O)N[C@@H](CCCC)C(=O)N[C@@H](C)C(=O)N[C@@H](CC(C)C)C(=O)N[C@@H](CC(=O)O)C(=O)N[C@@H](CCCNC(=N)N)C(=O)N[C@H](C(N)=O)[C@@H](C)CC)NC(=O)[C@H]([C@@H](C)CC)NC(=O)[C@H](C(C)C)NC(=O)[C@H](CC(C)C)NC1=O
With B2, in experiment [4], the IC50 is over 700 nM.

B3: SP-14 (peptide)
peptide: Ac-FIDEEAL[Nle][S5]LVI[S5][Nle]ALDRI-NH2
modifications: staple 9-13
SMILES: CCCC[C@H](NC(=O)[C@H](CC(C)C)NC(=O)[C@H](C)NC(=O)[C@H](CCC(=O)O)NC(=O)[C@H](CCC(=O)O)NC(=O)[C@H](CC(=O)O)NC(=O)[C@@H](NC(=O)[C@H](Cc1ccccc1)NC(C)=O)[C@@H](C)CC)C(=O)N[C@@]1(C)CCCC=CCCC[C@@](C)(C(=O)N[C@@H](CCCC)C(=O)N[C@@H](C)C(=O)N[C@@H](CC(C)C)C(=O)N[C@@H](CC(=O)O)C(=O)N[C@@H](CCCNC(=N)N)C(=O)N[C@H](C(N)=O)[C@@H](C)CC)NC(=O)[C@H]([C@@H](C)CC)NC(=O)[C@H](C(C)C)NC(=O)[C@H](CC(C)C)NC1=O
In experiment [4], B3 came in with an IC50 of over 700 nM.

B4: SP-11 (peptide)
peptide: Ac-FIAEEVL[Nle][S5]LVI[S5][Nle]ALDRI-NH2
modifications: staple 9-13
SMILES: CCCC[C@H](NC(=O)[C@H](CC(C)C)NC(=O)[C@@H](NC(=O)[C@H](CCC(=O)O)NC(=O)[C@H](CCC(=O)O)NC(=O)[C@H](C)NC(=O)[C@@H](NC(=O)[C@H](Cc1ccccc1)NC(C)=O)[C@@H](C)CC)C(C)C)C(=O)N[C@@]1(C)CCCC=CCCC[C@@](C)(C(=O)N[C@@H](CCCC)C(=O)N[C@@H](C)C(=O)N[C@@H](CC(C)C)C(=O)N[C@@H](CC(=O)O)C(=O)N[C@@H](CCCNC(=N)N)C(=O)N[C@H](C(N)=O)[C@@H](C)CC)NC(=O)[C@H]([C@@H](C)CC)NC(=O)[C@H](C(C)C)NC(=O)[C@H](CC(C)C)NC1=O
B4 showed an IC50 in experiment [4] of over 700 nM.

B5: SP-12 (peptide)
peptide: Ac-FIDAEVL[Nle][S5]LVI[S5][Nle]ALDRI-NH2
modifications: staple 9-13
SMILES: CCCC[C@H](NC(=O)[C@H](CC(C)C)NC(=O)[C@@H](NC(=O)[C@H](CCC(=O)O)NC(=O)[C@H](C)NC(=O)[C@H](CC(=O)O)NC(=O)[C@@H](NC(=O)[C@H](Cc1ccccc1)NC(C)=O)[C@@H](C)CC)C(C)C)C(=O)N[C@@]1(C)CCCC=CCCC[C@@](C)(C(=O)N[C@@H](CCCC)C(=O)N[C@@H](C)C(=O)N[C@@H](CC(C)C)C(=O)N[C@@H](CC(=O)O)C(=O)N[C@@H](CCCNC(=N)N)C(=O)N[C@H](C(N)=O)[C@@H](C)CC)NC(=O)[C@H]([C@@H](C)CC)NC(=O)[C@H](C(C)C)NC(=O)[C@H](CC(C)C)NC1=O
For B5, the IC50 in experiment [4] was over 700 nM.

B6: SP-10 (peptide)
peptide: Ac-FADEEVL[Nle][S5]LVI[S5][Nle]ALDRI-NH2
modifications: staple 9-13
SMILES: CCCC[C@H](NC(=O)[C@H](CC(C)C)NC(=O)[C@@H](NC(=O)[C@H](CCC(=O)O)NC(=O)[C@H](CCC(=O)O)NC(=O)[C@H](CC(=O)O)NC(=O)[C@H](C)NC(=O)[C@H](Cc1ccccc1)NC(C)=O)C(C)C)C(=O)N[C@@]1(C)CCCC=CCCC[C@@](C)(C(=O)N[C@@H](CCCC)C(=O)N[C@@H](C)C(=O)N[C@@H](CC(C)C)C(=O)N[C@@H](CC(=O)O)C(=O)N[C@@H](CCCNC(=N)N)C(=O)N[C@H](C(N)=O)[C@@H](C)CC)NC(=O)[C@H]([C@@H](C)CC)NC(=O)[C@H](C(C)C)NC(=O)[C@H](CC(C)C)NC1=O
As for B6, the IC50 in experiment [4] is over 700 nM.
